Experimental data taken from patent US12121512B2, “Anti-fungal agent” (priority 2019, dated 2024).
≈ marks a conversion by molar mass, not a printed value.

Key:
[1] = tested on: Cryptococcus neoformans var. grubii clinical isolates and multi-azole resistant strains; assay: microbe, parasite or virus in culture; type: cell-based; conditions: E-test; for MIC range: 14 isolates (Nos. 1-14); for MIC: Cryptococcus neoformans
Excerpt: Six isolates of cryptococcus were obtained from skin-infected cats and five from systemically infected cats, for a total of 11 strains.
(§1) Three isolates of cryptococcus were acquired from skin-infected humans.
(§2) All of the above-acquired isolates were Cryptococcus neoformans var. grubii strains (type A).
(§3) Further, as described below, 3 multidrug-resistant strains resistant to fluconazole (FLCZ) and voriconazole (VRCZ) as azole-based antifungal agents were acquired.
(§4) Thereafter, 12 colonies generated on the plate were inoculated on Sabouraud glucose agar medium containing 5 μg/ml of VRCZ. This was cultured at room temperature for 10 days, and the obtained colonies were further subcultured, to obtain 3 azole-based multidrug-resistant strains.
Sensitivity to fluconazole (FLCZ), itraconazole (ITCZ) and voriconazole (VRCZ) was evaluated using the E-test. […] E-test gradient strips were purchased from AB BIODISK. The MICs for FLCZ, ITCZ and VRCZ were determined after culturing at 35° C. for 72 hours. Each isolate was tested twice at shifted times, and each test included twice measurements.

[2] = tested on: Cryptococcus neoformans var. grubii clinical isolates and multi-azole resistant strains; assay: CLSI M27-A3 broth microdilution MIC assay; type: cell-based; conditions: for MIC: Cryptococcus neoformans
Excerpt: Six isolates of cryptococcus were obtained from skin-infected cats and five from systemically infected cats, for a total of 11 strains. One strain of cat skin cryptococcus and one strain of cat systemic cryptococcus were fluconazole-resistant.
as §1, §2, §3
as §4, with “Clinically separated fluconazole (FLCZ) resistant Cryptococcus neoformans cells (2.3×10^5) were inoculated on Sabouraud glucose agar medium containing 3 μg/ml of voriconazole (VRCZ), and cultured at room temperature for 7 days. Thereafter,” for “Thereafter,”
The strains obtained in Example 1 were maintained on Sabouraud glucose agar medium until the test of sensitivity to antifungal compounds.
Sensitivity to ravuconazole (RVCZ) was determined according to the CLSI M27-A3 guideline using broth microdilution assay. The minimum inhibitory concentration (MIC) was measured after culturing at 35° C. for 72 hours. MIC was defined as the lowest concentration that induces significant inhibition of growth (inhibition of about 50% or more).
CLSI M27-A3 test and E-test MIC assay were performed using Candida parapsilosis ATCC 22019 and Candida kruzei ATCC 6258 purchased from ATCC as controls. As a result, a high correlation was observed between the MIC results of the azole-based drugs obtained in the CLSI M27-A3 test and the E-test, so the results of both were compared.

[3] = 72 h, Strain No. 1, Feline cutaneous cryptococcosis, 35° C.
[4] = 72 h, Strain No. 2, Feline systemic cryptococcosis, 35° C.
[5] = 72 h, Strain No. 3, Feline systemic cryptococcosis, 35° C.
[6] = 72 h, Strain No. 4, Feline cutaneous cryptococcosis, 35° C.
[7] = 72 h, Strain No. 5, Feline cutaneous cryptococcosis, 35° C.
[8] = 72 h, Strain No. 6, Feline systemic cryptococcosis, 35° C.
[9] = 72 h, Strain No. 7, Feline systemic cryptococcosis, 35° C.
[10] = 72 h, Strain No. 8 (FLCZ resistant strain), Feline systemic cryptococcosis, 35° C.
[11] = 72 h, Strain No. 9, Feline systemic cryptococcosis, 35° C.
[12] = 72 h, Strain No. 10, Feline cutaneous cryptococcosis, 35° C.
[13] = 72 h, Strain No. 11, Human cutaneous cryptococcosis, 35° C.
[14] = 72 h, Strain No. 12, Human cutaneous cryptococcosis, 35° C.
[15] = 72 h, Strain No. 13, Human cutaneous cryptococcosis, 35° C.
[16] = 72 h, Strain No. 14 (FLCZ resistant strain), Feline cutaneous cryptococcosis, 35° C.
[17] = 72 h, Strain No. 15, Multi-azole resistance strain, 35° C.
[18] = 72 h, Strain No. 16, Multi-azole resistance strain, 35° C.
[19] = 72 h, Strain No. 17, Multi-azole resistance strain, 35° C.
[20] = azole-based multidrug-resistant strains (Nos. 15-17)
[21] = read-out: average MIC, 14 isolates (Nos. 1-14)

## CCC(C)n1ncn(-c2ccc(N3CCN(c4ccc(OCC5COC(Cn6cncn6)(c6ccc(Cl)cc6Cl)O5)cc4)CC3)cc2)c1=O (stereo not shown) [ITCZ, itraconazole]
[1]
  MIC range: <0.002 to 0.75 µg/mL
[1]; [3]
  MIC: 0.047 µg/mL (≈ 0.0666 µM)
[1]; [4]
  MIC: 0.002 µg/mL (≈ 0.00283 µM)
[1]; [5]
  MIC: 0.23 µg/mL (≈ 0.326 µM)
[1]; [6]
  MIC: 0.018 µg/mL (≈ 0.0255 µM)
[1]; [7]
  MIC: 0.5 µg/mL (≈ 0.709 µM)
[1]; [8]
  MIC: 0.064 µg/mL (≈ 0.0907 µM)
[1]; [9]
  MIC: 0.38 µg/mL (≈ 0.539 µM)
[1]; [10]
  MIC: 0.25 µg/mL (≈ 0.354 µM)
[1]; [11]
  MIC: 0.23 µg/mL (≈ 0.326 µM)
[1]; [12]
  MIC: 0.75 µg/mL (≈ 1.06 µM)
[1]; [13]
  MIC: 0.19 µg/mL (≈ 0.269 µM)
[1]; [14]
  MIC: 0.125 µg/mL (≈ 0.177 µM)
[1]; [15]
  MIC: 0.125 µg/mL (≈ 0.177 µM)
[1]; [16]
  MIC: 0.38 µg/mL (≈ 0.539 µM)
[1]; [17]
  MIC: > 32 µg/mL
[1]; [18]
  MIC: > 32 µg/mL
[1]; [19]
  MIC: > 32 µg/mL
[1]; [20]
  MIC: > 32 µg/mL
[1]; [21]
  MIC: 0.235 µg/mL (≈ 0.333 µM)

## C[C@@H](c1ncncc1F)[C@](O)(Cn1cncn1)c1ccc(F)cc1F [VRCZ, voriconazole]
[1]
  MIC range: <0.002 to 0.125 µg/mL
[1]; [3]
  MIC: 0.008 µg/mL (≈ 0.0229 µM)
[1]; [4]
  MIC: < 0.002 µg/mL
[1]; [5]
  MIC: 0.032 µg/mL (≈ 0.0916 µM)
[1]; [6]
  MIC: 0.064 µg/mL (≈ 0.183 µM)
[1]; [8]
  MIC: 0.047 µg/mL (≈ 0.135 µM)
[1]; [9]
  MIC: 0.032 µg/mL (≈ 0.0916 µM)
[1]; [10]
  MIC: 0.094 µg/mL (≈ 0.269 µM)
[1]; [11]
  MIC: 0.012 µg/mL (≈ 0.0344 µM)
[1]; [12]
  MIC: 0.023 µg/mL (≈ 0.0658 µM)
[1]; [13]
  MIC: 0.003 µg/mL (≈ 0.00859 µM)
[1]; [14]
  MIC: 0.006 µg/mL (≈ 0.0172 µM)
[1]; [15]
  MIC: 0.003 µg/mL (≈ 0.00859 µM)
[1]; [16]
  MIC: 0.023 µg/mL (≈ 0.0658 µM)
[1]; [17]
  MIC: 12 µg/mL (≈ 34.4 µM)
[1]; [18]
  MIC: 8 µg/mL (≈ 22.9 µM)
[1]; [19]
  MIC: 6 µg/mL (≈ 17.2 µM)
[1]; [20]
  MIC: 6 to 12 µg/mL (≈ 17.2 to 34.4 µM)
[1]; [21]
  MIC: 0.036 µg/mL (≈ 0.103 µM)

## C[C@@H](c1nc(-c2ccc(C#N)cc2)cs1)[C@](O)(Cn1cncn1)c1ccc(F)cc1F [RVCZ, ravuconazole]
[2]; 14 isolates (Nos. 1-14), CLSI M27-A3
  MIC range: <0.003125 to 0.25 µg/mL
[2]; 72 h, Strain No. 1, Feline cutaneous cryptococcosis, CLSI M27-A3, 35° C.
  MIC: 0.0312 µg/mL (≈ 0.0714 µM)
[2]; 72 h, Strain No. 2, Feline systemic cryptococcosis, CLSI M27-A3, 35° C.
  MIC: 0.0312 µg/mL (≈ 0.0714 µM)
[2]; 72 h, Strain No. 3, Feline systemic cryptococcosis, CLSI M27-A3, 35° C.
  MIC: 0.0312 µg/mL (≈ 0.0714 µM)
[2]; 72 h, Strain No. 4, Feline cutaneous cryptococcosis, CLSI M27-A3, 35° C.
  MIC: 0.0625 µg/mL (≈ 0.143 µM)
[2]; 72 h, Strain No. 5, Feline cutaneous cryptococcosis, CLSI M27-A3, 35° C.
  MIC: 0.0625 µg/mL (≈ 0.143 µM)
[2]; 72 h, Strain No. 6, Feline systemic cryptococcosis, CLSI M27-A3, 35° C.
  MIC: 0.125 µg/mL (≈ 0.286 µM)
[2]; 72 h, Strain No. 7, Feline systemic cryptococcosis, CLSI M27-A3, 35° C.
  MIC: 0.0625 µg/mL (≈ 0.143 µM)
[2]; 72 h, Strain No. 8 (FLCZ resistant strain), Feline systemic cryptococcosis, CLSI M27-A3, 35° C.
  MIC: 0.125 µg/mL (≈ 0.286 µM)
[2]; 72 h, Strain No. 9, Feline systemic cryptococcosis, CLSI M27-A3, 35° C.
  MIC: 0.0312 µg/mL (≈ 0.0714 µM)
[2]; 72 h, Strain No. 10, Feline cutaneous cryptococcosis, CLSI M27-A3, 35° C.
  MIC: 0.125 µg/mL (≈ 0.286 µM)
[2]; 72 h, Strain No. 11, Human cutaneous cryptococcosis, CLSI M27-A3, 35° C.
  MIC: 0.0312 µg/mL (≈ 0.0714 µM)
[2]; 72 h, Strain No. 12, Human cutaneous cryptococcosis, CLSI M27-A3, 35° C.
  MIC: 0.0312 µg/mL (≈ 0.0714 µM)
[2]; 72 h, Strain No. 13, Human cutaneous cryptococcosis, CLSI M27-A3, 35° C.
  MIC: 0.0312 µg/mL (≈ 0.0714 µM)
[2]; 72 h, Strain No. 14 (FLCZ resistant strain), Feline cutaneous cryptococcosis, CLSI M27-A3, 35° C.
  MIC: 0.125 µg/mL (≈ 0.286 µM)
[2]; 72 h, Strain No. 15, Multi-azole resistance strain, CLSI M27-A3, 35° C.
  MIC: 0.5 µg/mL (≈ 1.14 µM)
[2]; 72 h, Strain No. 16, Multi-azole resistance strain, CLSI M27-A3, 35° C.
  MIC: 0.5 µg/mL (≈ 1.14 µM)
[2]; 72 h, Strain No. 17, Multi-azole resistance strain, CLSI M27-A3, 35° C.
  MIC: 0.25 µg/mL (≈ 0.571 µM)
[2]; azole-based multidrug-resistant strains (Nos. 15-17), CLSI M27-A3
  MIC: 0.25 to 0.5 µg/mL (≈ 0.571 to 1.14 µM)
[2]; read-out: average MIC, 14 isolates (Nos. 1-14), CLSI M27-A3
  MIC: 0.0376 µg/mL (≈ 0.0859 µM)

## OC(Cn1cncn1)(Cn1cncn1)c1ccc(F)cc1F [FLCZ, fluconazole]
[1]
  MIC range: <0.016 to 128 µg/mL
[1]; [3]
  MIC: 3 µg/mL (≈ 9.8 µM)
[1]; [4]
  MIC: < 0.016 µg/mL
[1]; [5]
  MIC: 6 µg/mL (≈ 19.6 µM)
[1]; [6]
  MIC: 16 µg/mL (≈ 52.2 µM)
[1]; [7]
  MIC: 32 µg/mL (≈ 104 µM)
[1]; [8]
  MIC: 2 µg/mL (≈ 6.53 µM)
[1]; [9]
  MIC: 1.5 µg/mL (≈ 4.9 µM)
[1]; [10]
  MIC: > 256 µg/mL
[1]; [11]
  MIC: 1.5 µg/mL (≈ 4.9 µM)
[1]; [12]
  MIC: 14 µg/mL (≈ 45.7 µM)
[1]; [13]
  MIC: 1.5 µg/mL (≈ 4.9 µM)
[1]; [14]
  MIC: 1.5 µg/mL (≈ 4.9 µM)
[1]; [15]
  MIC: 0.75 µg/mL (≈ 2.45 µM)
[1]; [16]
  MIC: 128 µg/mL (≈ 418 µM)
[1]; [17]
  MIC: > 256 µg/mL
[1]; [18]
  MIC: > 256 µg/mL
[1]; [19]
  MIC: > 256 µg/mL
[1]; [20]
  MIC: > 256 µg/mL
[1]; [21]
  MIC: 17.3 µg/mL (≈ 56.5 µM)
